From ChEMBL document CHEMBL5096164, “In Vivo Profiling of a Natural Alkaloid, Anatabine, in Rodents: Pharmacokinetics and Anti-Inflammatory Efficacy” (J Nat Prod, 2021)

How the values were obtained:
Mus musculus [1] = assay: Antiinflammatory activity in LPS induced mouse model assessed as reduction in tumor necrosis factor alpha level in plasma at 1 mg/kg, po preincubated for 1 hr followed by LPS stimulation and measured after 2 hrs by ELISA method relative to control; format: functional; parameters: scale not given: the % may be the effect or the level left; conditions: time 3 hrs
Mus musculus [2] = assay: Antiinflammatory activity in LPS induced mouse model assessed as reduction in IL-6 level in plasma at 1 mg/kg, po preincubated for 1 hr followed by LPS stimulation and measured after 2 hrs by ELISA method relative to control; format: functional; parameters: scale not given: the % may be the effect or the level left; conditions: time 3 hrs

C[C@@H]1C[C@H]2[C@@H]3CCC4=CC(=O)C=C[C@]4(C)[C@@]3(F)[C@@H](O)C[C@]2(C)[C@@]1(O)C(=O)CO [DEXAMETHASONE] showed an Activity (Mus musculus [1]) of 72.1% and an Activity (Mus musculus [2]) of 46.9%.
